# Reference: a melting point compilation (Tetko et al.; mined from patent text by program, amines drawn as free bases though some values may be those of a salt)
row,melting point,SMILES
1,65 °C,CCCCC(Cc1cccnc1)(C(=O)NO)S(=O)(=O)c1ccc(OC)cc1 (stereo not drawn)
2,300 to 305 °C,CCn1cc(C(=O)O)c(=O)c2cc(F)c(N3CCNC(c4sc5ccc(Cl)cc5c4C)C3)cc21 (stereo not drawn)
3,269 to 272 °C,COCc1nc2c(NCc3c(C)cccc3C)cc(C(=O)O)cc2n1C
4,74 to 77 °C,CS(=O)(=O)c1nc(Cl)cc(OCc2ccccc2)n1
5,156 to 157 °C,COc1cc(Nc2nccc(-c3ccc(N4CCN(CCO)CC4)nc3)n2)cc(OC)c1OC
6,89 to 91 °C,O=C1OC(COc2ccccc2)CN1CCO (stereo not drawn)
7,119 to 120 °C,CCC(C)(C)C(=O)Oc1cccc2ccc(OCCOc3ccc(C(=O)C(=O)OC)cc3)cc12
8,228 °C,O=C(c1cc(=O)c2ccc(OCc3ccccc3)cc2[nH]1)N1CCC(Cc2ccccc2)CC1
9,68 °C,CCCOc1ccccc1N1CCN(CCCCn2c(=O)[nH]c(=O)c3ccccc32)CC1
10,95 to 98 °C,Cc1cc(Cc2ccccc2)nc(Nc2ccc(-n3ccnc3CO)cc2)n1
11,204 to 205 °C,O=C(O)CCc1cnoc1-c1ccc([N+](=O)[O-])cc1
12,189 to 190 °C,Cc1cccc(C(N)=O)c1SSc1c(C)cccc1C(N)=O
13,111 to 113 °C,CCOC(=O)c1ccc2c(S)cccn2c1=O
14,116 °C,C=C(C)C(=O)Oc1ccc2c(c1)CCc1cc(OC(=O)C(=C)C)ccc1-2
15,76 to 77 °C,CC(=O)Oc1ccc2c(c1)CCCO2
16,112 °C,CCCSc1nccn2c(=O)c(C(=O)OCC)cnc12
17,175 to 177 °C,CC(=O)c1coc2cc(NS(C)(=O)=O)c(Oc3ccccc3)cc2c1=O
18,200 °C,CCOC(=O)CCc1csc2c(C(=O)OCC)c(=O)c3cc(F)c(Cl)cc3n12
19,173 to 174 °C,CC(C)c1cccc(C(C)C)c1NC(=O)NCC1(O)CCc2ccccc21 (stereo not drawn)
20,118 to 120 °C,COCCCn1c(O)nc2ccc(C)cc21
21,184 to 186 °C,CN1C(=O)C(C)(C)c2ccc(C(=O)Nc3ccccc3)cc21
22,89 to 90 °C,COC=C(C(=O)OC)N(C)c1cccc(-c2ccccc2)n1
23,197 to 198 °C,CCOc1n[nH]cc1C(=O)NCc1ccc(Cl)cc1Cl
24,180 °C,O=C(NC1CC2C=CC1C2)n1cc(F)c(=O)[nH]c1=O (stereo not drawn)
25,148 to 150 °C,CC(=O)OC1CSC(Oc2cncc(I)c2)C(OC(C)=O)C1OC(C)=O (stereo not drawn)
26,185 °C,CC(=O)OC1CSC(Oc2ccnc(-c3cccnc3)c2)C(OC(C)=O)C1OC(C)=O (stereo not drawn)

row,melting point,SMILES
1,220 to 221 °C,COc1ccc(-c2c3ccccc3cc3sc4ccccc4c23)cc1
2,113 to 115 °C,COc1cc(OC)cc(C(=O)NCC(=O)N2c3ccccc3N(Cc3ccccc3)C(=O)[C@H]3CCC[C@H]32)c1 (relative stereo)
3,67 to 69 °C,CCOc1ccc(N2CC(C(=O)OC)CC2=O)cc1 (stereo not drawn)
4,158 to 160 °C,CC(=O)OCc1csc(Nc2ccc(Oc3ccccc3)cn2)n1
5,156 to 157 °C,CC(C)n1nc(-c2c(-c3ccccc3)nn3ccc(C(=O)NCCOc4ccccc4)cc23)ccc1=O
6,89 to 92 °C,CC(=O)Nc1ccc(OCCCO[N+](=O)[O-])cc1
7,130 °C,CCOC(=O)c1cnn2c(C(F)(F)F)cc(-c3ccc(C(F)(F)F)cc3)cc12
8,82 to 84 °C,COc1cc(C=CC(=O)CCc2ccco2)ccc1O
9,140 to 141 °C,COc1cccc(C(N)=O)c1N
10,200 to 202 °C,CS(=O)(=O)c1ccc(/C(=C\C2CCCC2)C(=O)O)cc1
11,133 to 138 °C,O=C(Cc1ccccc1)NC(SC(=O)c1ccccc1)C(=O)O (stereo not drawn)
12,110 to 113 °C,CCc1nc(C(=O)OC)c(OC)c(N)c1F
13,143 to 144 °C,O=C1NC(=O)C(S(=O)(=O)c2ccc(Cl)cc2)S1 (stereo not drawn)
14,149 to 150 °C,CC=CC=CC(O)c1ccc(-c2nc(C)c3c(n2)sc2c(OCC)nc(N4CCNCC4)nc23)cc1 (stereo not drawn)
15,146 to 147 °C,CC(=O)NCCn1ccc2c1-c1c(Cl)cccc1CC2
16,105 to 108 °C,CCOC(=O)C1CC(=O)NN1c1ncc(Cl)cc1Cl (stereo not drawn)
17,167 to 169 °C,COC(=O)C1CCC2(C)C(=CC(=O)C3C2CCC2(C)C(C(=O)OC)CCC32)C1 (stereo not drawn)
18,82 °C,C[C@H](OCc1cc2cc(Cl)ccc2n1S(=O)(=O)c1ccc2ncsc2c1)C(=O)O
19,200 to 201 °C,Cc1ncc(C#N)c(Nc2ccc3[nH]ccc3c2C)c1-c1ccc(OCCCl)cc1
20,51 to 54 °C,COC(=O)C(CC1CCCC1)c1ccc(I)cc1 (stereo not drawn)
21,117 °C,O=C(Nc1cccc(Br)c1)Oc1ccc2c(c1)CCCN2Cc1ccccc1
22,228 to 230 °C,Nc1ccc(F)c(-n2cc(C(=O)O)c(=O)c3cc(F)c(F)c(Cl)c32)n1
23,93 to 94 °C,C=CCOc1cc([N+](=O)[O-])ccc1OC
24,136 to 141 °C,CCOc1ccc(F)c(N=Cc2cnc(SC)nc2NC2CCCC2)c1F
25,223 °C,Cc1ccc2c(c1)C=Cc1cc(C)ccc1C2c1cn(-c2ccnc(NC(Cc3c[nH]cn3)C(=O)O)n2)c(=O)[nH]c1=O (stereo not drawn)

# Continued, molecule first:
row,SMILES,melting point
1,Cc1ccc(Cl)c(C)c1Nn1cc(C#N)c(=O)[nH]c1=O,> 320 °C
2,N#Cc1ccc(N2C[C@H](O)C[C@@H]2CO)c2ccccc12,146 to 147 °C
3,O=P(c1ccccc1)(c1ccccc1)N1C[C@@H](P(c2ccccc2)c2ccccc2)C[C@H]1CP(c1ccccc1)c1ccccc1,130 °C
4,COc1ccccc1NC(=O)Nc1nc(Oc2ccc3ccccc3c2)nc(N(CCC(=O)O)Cc2cccc(Cl)c2)n1,215 to 218 °C
5,Cn1nc(-c2ncc(Cl)cc2F)c(C(F)F)c1OC(F)F,79 to 81 °C
6,Cn1cnc(COc2nn3c(-c4ccccc4)nnc3cc2-c2ccccc2)n1,229 to 233 °C
7,COC1C(O)C(CO)OC1n1cnc2c(N)nc(F)nc21 (stereo not drawn),239 to 241 °C
8,O=Cc1c[nH]c(-c2cccs2)c1,198 to 199 °C
9,CC1(C)C=C(c2ccccn2)c2ccc(Cl)c(Cl)c2OC1,112 °C
10,N#Cc1ncn2c(C(F)(F)F)cc(-c3ccncc3)nc12,254 °C
11,COC(=O)CCCCCCCCCCCCC1=C(C)C(=O)C(OC)=C(OC)C1=O,54 °C
12,O=C(O)c1cn(-c2cc([N+](=O)[O-])c(F)cc2F)c2cc(F)c(F)cc2c1=O,> 270 °C
13,CC(C)(C)Nc1nc(NC(C)(C)C)nc(N2CC3CCC(CC3)C2)n1,217 to 222 °C
14,O=C(Nc1n[nH]c(=S)s1)NC(Cc1ccccc1)C(=O)NCc1ccc(C(F)(F)F)cc1 (stereo not drawn),217 to 218 °C
15,O=c1cc(-c2ccccc2)oc(=O)[nH]1,> 210 °C
16,c1ccc(C2COc3cccc4c5c(OCCN6CCNCC6)cccc5n2c34)cc1 (stereo not drawn),72 °C
17,Cn1ccc(O)cc1=O,165 to 169 °C
18,O=C(O)C1CCCCN1CC=CP(=O)(O)O (stereo not drawn),163 to 165 °C
19,COc1c(Cl)c(OC)c2cnoc2c1Cl,138 to 140 °C
20,CC1(C)Cc2cccc(CCN3CCN(c4nsc5ccccc45)CC3)c2NC1=O,95 °C
21,Clc1ncnc2c1CCOc1ccccc1-2,114 to 115 °C
22,O=C(O)c1cn(C2CC2)c2cc(F)c(F)cc2c1=O,288 to 290 °C
23,O=C1NC(=S)SC1=Cc1ccc(COc2ccccc2CCc2ccccc2)cc1,162 to 163 °C
24,O=C(CC1CCC(CC(=O)Oc2cc(O)cc(O)c2)CC1)Oc1cc(O)cc(O)c1 (stereo not drawn),215 to 220 °C
25,N#Cc1cnn2c1NCC=C2c1ccc(Cl)c(Cl)c1,254 to 256 °C
26,CCC1=NN=C(CC)NN1,118 to 120 °C

row,SMILES,melting point
1,CC1(C)Sc2nccn2C1=NOC(=O)CNSCNC(=O)ON=C1n2ccnc2SC1(C)C,177 to 180 °C
2,O=c1cc(NCCNCCOc2cccc3c2OCCO3)cn[nH]1,81 to 83 °C
3,NC(=O)C1=C(C(=O)Nc2ccc(Cl)cc2F)CCCC1,150 to 151 °C
4,O=C1C(Cc2ccccc2)C(c2ccccc2)Nc2ccccc2N1Cc1ccccc1 (stereo not drawn),149 to 150 °C
5,CS(=O)(=O)Nn1c(=O)[nH]c2cc(C(F)(F)F)c(C3CCCO3)cc2c1=O (stereo not drawn),254 to 257 °C
6,NC(=O)c1c(Cl)ccc(Br)c1F,157 to 158 °C
7,Cc1cc(-c2cc(C(F)F)n3ncc(C(=O)Nc4cccc(S(=O)(=O)N5CCOCC5)c4)c3n2)ccc1C(F)(F)F,261 °C
8,COc1cc(C(C)(C)C)c(O)c(C(=O)Nc2ccc(S(=O)(=O)C(F)(F)F)cc2Cl)c1C,121 to 122 °C
9,CCCCOCc1cnc2nc(N)[nH]c(=O)c2n1,> 300 °C
10,ClCc1c2ccccc2c(Cc2ccccc2)c2ccccc12,146 to 147 °C
11,N#Cc1cnn2c1N(C(=O)CCl)CC=C2c1cc(Cl)ccc1Cl,235 to 236 °C
12,O=[N+]([O-])c1cc(Br)cc(Br)c1,102 to 104 °C
13,CNc1nnc(C(C)(C)C)s1,79 to 81 °C
14,CC1=CC(C)=Nc2c(ccc3nc(O)c(O)nc23)N1,> 300 °C
15,CCCCCCCCCCCCCCCCCC1CC(O)C(CC)C(=O)O1 (racemic),101 to 102 °C
16,CCCCCCCCCCOc1cc(O)cc(OCCCCCCCCCC)c1,48 to 50 °C
17,Sc1nnc(-c2ccc3[nH]ncc3c2)o1,283 to 284 °C
18,CC(C)(C)CC(C)(C)c1cc(Cc2cc(C(C)(C)C)cc(C(C)(C)C)c2O)c(O)c(-n2nc3ccccc3n2)c1,137 °C
19,O=C(O)CCCNC(=O)CC1=C(n2nc(-c3c(-c4ccccc4)nn4ccccc34)ccc2=O)CCCC1,92.5 to 93 °C
20,N#CCc1ccc(Br)nc1,55.5 to 57.5 °C
21,CC(=O)OCCOCn1c(Cl)nc2c(Cl)c(Cl)c(Cl)c(Cl)c21,119 °C
22,COC(=O)NNC(=O)c1n[nH]c2cc(OC)c(OC)cc12,235 °C
23,CCCCCC1(c2ccccc2)CC=CC(=O)O1 (stereo not drawn),123 to 124 °C
24,OC(COc1cc(-c2ccccc2)on1)CN1CCOCC1 (stereo not drawn),123 to 124 °C
25,CCCCCCCCCC1OC1C(=O)O (stereo not drawn),56 to 57 °C
26,CCc1cn2c(n1)Cc1cc3c(cc1C(c1ccc(N)cc1)=N2)OCO3,192 to 194 °C
